The target of data set [1] is T1, AChE (Rattus norvegicus, UniProt P37136).
T1 sequence (P37136 32-614): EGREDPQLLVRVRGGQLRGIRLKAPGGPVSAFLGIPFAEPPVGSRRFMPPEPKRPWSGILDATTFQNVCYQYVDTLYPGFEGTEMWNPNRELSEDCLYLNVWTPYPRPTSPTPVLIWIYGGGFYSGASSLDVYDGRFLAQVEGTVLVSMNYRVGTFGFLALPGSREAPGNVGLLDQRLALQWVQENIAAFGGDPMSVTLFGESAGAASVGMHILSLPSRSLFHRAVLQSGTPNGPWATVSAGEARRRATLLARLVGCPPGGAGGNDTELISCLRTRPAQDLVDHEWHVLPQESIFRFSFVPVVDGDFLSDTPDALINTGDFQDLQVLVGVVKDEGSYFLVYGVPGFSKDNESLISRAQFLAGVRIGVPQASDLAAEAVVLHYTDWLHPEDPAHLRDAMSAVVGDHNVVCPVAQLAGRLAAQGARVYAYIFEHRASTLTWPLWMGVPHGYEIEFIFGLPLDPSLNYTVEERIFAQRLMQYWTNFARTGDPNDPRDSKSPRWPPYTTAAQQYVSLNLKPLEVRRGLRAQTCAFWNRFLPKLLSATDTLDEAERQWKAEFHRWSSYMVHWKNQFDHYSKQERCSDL
Kind of data set: In vitro AChE activity in rat hippocampus homogenate. In kind it is biochemical.

Data set [2] concerns the target T1, AChE. Briefly: In vitro AChE activity in rat cerebral cortex homogenate. Particulars: read-out: inhibition of AChE activity. The data set is classed as biochemical.
Another data set has as its system MRC-5 (human fibroblast). Briefly: Cytotoxicity in fibroblast culture by SRB test. The data set is classed as cell-based. Particulars: 24 h. A general note: The SRB assay estimates cell density from bound dye.
Where [3] appears, read: read-out: inhibition of AChE activity.

The record followed here is publication PMC6263113 (Journal of Enzyme Inhibition and Medicinal Chemistry, 2018).

Entries after “also recorded” stand apart in the source; their conditions may differ.

By IC50 is commonly meant the concentration that gives 50% inhibition. A higher IC50 goes with weaker potency. The inhibition is how much of the control response was suppressed. With `O=C1c2ccccc2SC(c2ccc([N+](=O)[O-])cc2)N1CCN1CCOCC1` (stereo not drawn) [5Ad, 3-(2-morpholinoethyl)-2-(4-nitrophenyl)-2,3-dihydro-4H-benzo[e][1,3]thiazin-4-one], the IC50 at AChE [1] was determined as 70.6 µM. In addition, the inhibition at 100 µM on AChE [1] (setting [3]) came to 46.4%.

Regarding `CCCCC1Sc2ccccc2C(=O)N1CCCN1CCCCC1` (stereo not drawn) [5Ba, 2-butyl-3-(3-(piperidin-1-yl)propyl)-2,3-dihydro-4H-benzo[e][1,3]thiazin-4-one], the inhibition at 10 µM at AChE [2] turned out to be 27.1%. For the same molecule, in the data set with MRC-5 (human fibroblast) (100 µM), the “cytotoxicity (cell proliferation vs DMSO control)” value is reported as “noncytotoxic”. The molecule also returned an IC50 against AChE [1] of 73.3 µM. Further, the inhibition at 100 µM at AChE [1] (setting [3]) turned out to be 46.2%.

For `O=C1c2ccccc2SC(c2ccccc2)N1CCCN1CCCCC1` (stereo not drawn) [5Bb, 2-phenyl-3-(3-(piperidin-1-yl)propyl)-2,3-dihydro-4H-benzo[e][1,3]thiazin-4-one], the inhibition at 10 µM on AChE [2] is 47.2%. In addition, 39.8 µM corresponded to half-maximal inhibition against AChE [1] (IC50). Further, at AChE [1] (setting [3]), the inhibition at 50 µM came out at 50%.

Turning to `O=C1c2ccccc2SC(c2ccc([N+](=O)[O-])cc2)N1CCCN1CCCCC1` (stereo not drawn) [5Bd, 2-(4-nitrophenyl)-3-(3-(piperidin-1-yl)propyl)-2,3-dihydro-4H-benzo[e] [1,3]thiazin-4-one], in the data set with MRC-5 (human fibroblast) (100 µM), the “cytotoxicity (cell proliferation vs DMSO control)” value was “no cytotoxicity; also recorded: noncytotoxic”. The “cytotoxicity in human fibroblast cell (overall statement)” value in the data set with MRC-5 (human fibroblast) was “low cytotoxicity”. This molecule gave an IC50 against AChE [1] of 39.8 µM.

`O=C1c2ccccc2SC(c2ccc(F)cc2)N1CCCN1CCCCC1` (stereo not drawn) [5Bf, 2-(4-fluorophenyl)-3-(3-(piperidin-1-yl)propyl)-2,3-dihydro-4H-benzo[e][1,3]thiazin-4-one] yielded an IC50 against AChE [1] of 61.7 µM.

For the molecule `O=C1c2ccccc2SC(c2ccc([N+](=O)[O-])cc2)N1CCN1CCCCC1` (stereo not drawn) [5Cd, 2-(4-nitrophenyl)-3-(2-(piperidin-1-yl)ethyl)-2,3-dihydro-4H-benzo[e] [1,3]thiazin-4-one], the “cytotoxicity (cell proliferation vs DMSO control)” value with MRC-5 (human fibroblast) (50 µM (lowest concentration tested)) was “showed toxicity”. On AChE [1], the IC50 came to 119 µM.
